Columns and labels:
C51S cells = type: cell-based; details: 48 h, KTI-240 3 μM, etoposide 2 μM
SiHa cells [1] = assay: Senescence SA-β-gal assay, SiHa; type: cell-based, human; details: 48 h, KTI-240 3 μM, etoposide 2 μM
RPE-1 cells = type: cell-based; details: p53 wild-type, HPV-negative
SiHa cells [2] = type: cell-based; details: 24 hours
UM-SCC-104 = assay: Immunoblot of p53 and p21 in UM-SCC-104 cells; type: cell-based, human; details: 24 hours
SiHa-C51S cells = type: cell-based; details: 24 hours

SMILES: COc1cc([C@@H]2c3cc4c(cc3[C@@H](O[C@@H]3O[C@@H]5CO[C@@H](C)O[C@H]5[C@H](O)[C@H]3O)[C@H]3COC(=O)[C@H]23)OCO4)cc(OC)c1O [etoposide]
- SA-β-gal senescence marker (C51S cells): induced
- SA-β-gal senescence marker (SiHa cells [1]): induced
- p53 protein levels (Western blot) (RPE-1 cells): induced p53 in both cell lines
- p53 protein levels (Western blot) (SiHa cells [2]): induced p53 in both cell lines
- p53 protein (immunoblot) (UM-SCC-104): did not induce p53
- p53 protein levels (Western blot) (SiHa-C51S cells): etoposide did

Reference: publication PMC13250552 (Proceedings of the National Academy of Sciences of the …, 2026)
